Experimental data taken from patent publication US7119107B2, “Pyridone derivatives” (Banyu Pharmaceutical Co., Ltd., priority 2002, dated 2006).
Read-outs that look alike come from different tables or passages of the source.

Experiments:
human NPY Y5 receptor = biological target: T1, human NPY Y5 receptor (Homo sapiens, UniProt Q15761); test: NPY binding inhibition test ([125I]peptide YY binding to membranes of NPY Y5 receptor expression cells); conditions: [125I]peptideYY, membranes of NPY Y5 receptor expressing cells, 25° C., 2 hours; read-out: 50% Inhibitory Concentration (IC50) against specific peptide YY binding
T1 construct: expressed in transfected cells; host or cells: COS-7, CHO and LM(tk-)
T1 sequence (Q15761 1-445): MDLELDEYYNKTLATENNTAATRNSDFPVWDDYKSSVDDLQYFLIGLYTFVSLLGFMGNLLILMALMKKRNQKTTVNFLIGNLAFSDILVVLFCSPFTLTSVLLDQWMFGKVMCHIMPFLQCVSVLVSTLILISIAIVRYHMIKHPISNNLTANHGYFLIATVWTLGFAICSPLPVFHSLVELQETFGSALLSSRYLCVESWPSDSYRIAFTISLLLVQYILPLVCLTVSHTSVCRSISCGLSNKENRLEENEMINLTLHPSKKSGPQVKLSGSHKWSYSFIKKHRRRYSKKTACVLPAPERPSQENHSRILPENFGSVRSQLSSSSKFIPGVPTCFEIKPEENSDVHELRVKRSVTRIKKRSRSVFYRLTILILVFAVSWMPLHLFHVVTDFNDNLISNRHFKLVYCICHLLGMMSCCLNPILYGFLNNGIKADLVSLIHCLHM
Excerpt: Pharmacological Test 1 (NPY Binding Inhibition Test)
cDNA sequence encoding human NPY Y5 receptor (c.f. International patent publication WO96/16542) was cloned into expression vectors pcDNA3, pRc/RSV (made by Invitrogen Inc.) and pCI-neo (made by Promega Inc.). The expression vectors thus obtained were transfected to host cells COS-7, CHO and LM(tk−) (American Type Culture Collection) by cationic lipid method (Proceedings of the National Academy of Sciences of the United States of America, vol. 84: p. 7413(1987)) to give NPY Y5 receptor expression cells.
A membrane sample prepared from the cells which expressed NPY Y5 receptor was incubated together with a test compound and [^125I]peptideYY (made by NEN) (20,000 cpm) in an assay buffer (25 mM Tris buffer, pH7.4, containing 10 mM magnesium chloride, 1 mM phenylmethylsulfonyl fluoride, 0.1% bacitracin and 0.5% bovine serum albumin) at 25° C. for 2 hours, then filtered through a glass filter GF/C and washed with 5 mM Tris buffer (pH7.4) containing 0.3% BSA. The radioactivity of the cake on the glass filter was measured. Non-specific binding was measured in the presence of 1 μM peptide YY, and a 50% Inhibitory Concentration (IC50) of the test compound against specific peptide YY binding was determined (Endocrinology, vol. 131: p. 2090(1992)).

Pharmacokinetics test = type: in vivo; conditions: rat, plasma, male SD rats, overnight fasting
Procedure: Pharmacological Test 3 (Pharmacokinetics Test)
A test compound was orally or intravenously administered to male SD rats (7–10 weeks old, 200–400 g) under the overnight fasting condition. About 100 μL of blood was collected from the tail vein by heparinized capillary at designated time. The blood was centrifuged (4° C., 6,000 r.p.m., 10 minutes) to obtain the plasma. Three-fold amount of ethanol containing an internal standard was added to plasma. The mixture was stirred, allowed to stand at −20° C. for 20 minutes, and then centrifuged (4° C., 10,000 r.p.m., 10 minutes). The supernatant was analyzed by LC/MS/MS, and the concentration of the test compound in the plasma was measured using a relative calibration curve.

[1] = Brain/cerebrospinal fluid transport test; type: in vivo, male SD rats; conditions: rat, one hour after oral administration (10 mg/kg); for concentration at 1 h: male, SD
Procedure: Pharmacological Test 4 (Brain/Cerebrospinal Fluid Transport Test)
A test compound was orally or intravenously administered to male SD rats (7–10 weeks old, 200–400 g), and whole blood was collected from the abdominal aorta using a heparin-treated syringe under the ether anesthesia at designated time. Then, the head skin was cut out, and a dental 30 G needle was inserted between the cervical vertebrae, and it was further inserted into the cavum subarachnoideum. After 50 to 100 μL cerebrospinal fluid had been collected by a 1 ml-syringe through a tube connected to the dental 30 G needle, the brain was extracted. The blood sample was centrifuged (4° C., 6,000 r.p.m., 10 minutes) to obtain the plasma, and 3-fold amount of ethanol containing an internal standard was added and stirred. The brain sample was homogenized after addition of 2 ml water, and an aliquot of the homogenate was taken and 3-fold amount of ethanol containing an internal standard was added and stirred. The cerebrospinal fluid was stirred after adding 3-fold amount of ethanol containing an internal standard. These samples were allowed to stand at −20° C. for 20 minutes, and then centrifuged (4° C., 12,000 g, 10 minutes). The supernatant was analyzed by LC/MS/MS, and the concentration of the test compound in the plasma, brain, and cerebrospinal fluid were measured by the method using a relative calibration curve.

general symptoms = test: General symptoms observation; type: in vivo; conditions: mice, 100 mg/kg orally, observed 0.5 to 24 hours after administration
Procedure: Pharmacological Test 5 (General Symptoms Observation)
A test compound was orally administered to male ICR mice (4–6 weeks old) under the overnight fasting condition, and general symptoms were observed 0.5, 1, 2, 3, 4 and 24 hours after the administration. The following 28 items were observed: stereotypy, glooming, vocalization, exploratory behavior, motor coordination, Straub tail reaction, tremor, convulsion, body posture, piloerection, writhing, palpebral opening, exophthalmos, skin color, respiratory rate, urination, defecation, salivation, lacrimation, startle response, aggression, grip strength, corneal reflex, body temperature, body tone, righting reflex, pain response and death.

[2] = system: gastrointestinal motility; test: Gastrointestinal motility (charcoal transportation); type: in vivo, male ICR mice; conditions: mice, 100 mg/kg orally, charcoal one hour later
Procedure: Pharmacological Test 6 (Gastrointestinal Motility) A test compound was orally administered to male ICR mice (4–6 weeks old) under the overnight fasting condition and, one hour later, 0.5% charcoal suspension (0.1 ml/10 g body weight) was orally administered. One hour after the administration of the charcoal, gastrointestinal tracts of the animals were removed, and length of the intestine from pylorus to the point to which charcoal reached was measured to obtain charcoal transportation ratio.

canine cardiac function = test: Canine cardiac function; type: in vivo, male beagle dogs; conditions: anesthetized beagle dogs, 3 mg/kg and 10 mg/kg via vein cannula, up to 60 minutes
Excerpt: Pharmacological Test 7 (Canine Cardiac Function)
The left femoral artery and vein of male beagle dogs (age: 9 months or older, weight: 10–15 kg) under anesthesia with isoflurane and artificial respiration were respectively cannulated for determination of arterial pressure and for administration of drugs. A tip catheter pressure transducer was placed in the left ventricle from the left carotid artery for determination of the left ventricular pressure. A Swan-Ganz catheter was placed in the pulmonary artery from the jugular vein via the right ventricle for determination of the pulmonary artery pressure, right atrium pressure and cardiac output. A transit doppler flow probe was attached to the right femoral artery for determination of the femoral blood flow. After completion of the operation, a solvent was administered from the cannula in the vein, followed by administration of a drug to be tested. Each parameter was determined just after the administration, and 10, 20, 30 and 60 minutes after the administration. The parameters determined were artery pressure, left ventricular pressure, pulmonary artery pressure, right atrium pressure, cardiac output, femoral blood flow, heart rate, electrocardiogram, left ventricular contractile performance (first differential of the left ventricular pressure), total peripheral vascular resistance, body temperature and arterial blood gas.

C[C@@H]1NC(c2cccc(=O)[nH]2)=N[C@]1(c1ccc(F)cc1)c1ccnc(F)c1 [Example 1, 6-[(4R,5S)-4-(4-fluorophenyl)-4-(2-fluoro-4-pyridyl)-5-methyl-2-imidazolin-2-yl]-2(1H)-pyridinone]
IC50 (human NPY Y5 receptor): 2.8 nM | bioavailability (Pharmacokinetics test; oral or intravenous administration): 51% | half-life (Pharmacokinetics test): 2.5 h | concentration at 1 h ([1]; cerebrospinal fluid, read-out: concentration in the cerebrospinal fluid): 106 nM | concentration at 1 h ([1]; plasma, read-out: concentration in the plasma): 2790 nM | concentration in the brain [1]: 0.29 nmol/g | effect on general symptoms (28 items) (general symptoms): did not affect | effect on gastrointestinal motility (charcoal transportation ratio) [2]: did not affect | effect on canine cardiac function (canine cardiac function): did not affect
